According to US7084141B2, “Inhibitors of macrophase migration inhibitory factor and methods for identifying the same” (Avanir Pharmaceuticals, priority 2001, dated 2006):
Like-named read-outs stand apart in the source and are kept apart here.

Key:
serum MIF = assay: Serum MIF after LPS/galactosamine challenge in mice (ELISA); format: in vivo, mouse
Method: Doses of lipopolysacchraride (LPS) were made fresh prior to each experiment. LPS (Escherichia Coli 0111:B4, Sigma) was reconstituted by adding 0.5% TEA (1 ml USP water+[…] Triethylamine (Pierce)) to a vial of 5 mg endotoxin. Once reconstituted, the solution was incubated at 37° C. for 30 minutes. Subsequently, the solution was sonicated in a 56–60° C. bath sonicator for 30 seconds 3 times. Following sonication the mixture was vortexed for 3 minutes continuously. The stock solution of LPS was then ready for use.
Ten 10-week-old (20±2 gram) female BALB/c mice (Charles River Laboratories, Kingston, N.Y.) were housed in a group of 5 per cage with free access to food and water and were acclimatized for at least one week prior to experimentation. On the day of experiment, mice were weighed and randomly distributed into group of 10 animals of equal mean body weight. […] Mouse serum Il-1β and TNF-α were measured by ELISA using a “mouse IL 1β immunoassay or mouse TNF-α immunoassay” kits (R&D System Minneapolis, Minn.) following manufacturer's direction. Serum MIF concentrations in mouse serum were quantified by a sandwich ELISA (ChemiKine MIF Kit, Chemicon, San Diego, Calif.). Samples were analyzed in duplicate, and results were averaged. […]

[1] = test system: BALB/c mice sensitized with β-D-galactosamine; format: in vivo, mouse

Cn1c(=O)c([N+](=O)[O-])c(N2CCN(C(=O)c3ccco3)CC2)c2ccccc21 [compound 7e]
decrease in serum MIF (serum MIF; 5 mg/kg LPS, four hours following treatment, p=0.0003): 60% | level of circulating MIF (serum MIF; 10 mg/kg LPS, 20 mg/kg i.p., p=0.05): significant decrease in the level of circulating MIF | survival at 12 hours ([1]; 1 mg/kg LPS, 20 mg/kg compound, neutralized by 300 μg/kg human recombinant MIF): significantly more (p<0.01) mice survive | 75% Animal Death ([1]; LPS Dosage 0.1 mg/kg): >100 h | 75% Animal Death ([1]; LPS Dosage 0.5 mg/kg): >100 h | 75% Animal Death ([1]; LPS Dosage 2 mg/kg): >100 h | 75% Animal Death ([1]; LPS Dosage 5 mg/kg): 32.0 h | 75% Animal Death ([1]; LPS Dosage 10 mg/kg): 18.0 h | 75% Animal Death ([1]; LPS Dosage 40 mg/kg): 11.6 h | survival ([1]; lethal dose of LPS (2, 5 and 10 mg/kg), 20 mg/kg i.p., control 6%, p=0.0004): 47%
